Experimental data from patent US4442084A, “Analgesic and myotonolytic preparations” (Sandoz Ltd., priority 1979, dated 1984).
Like-named read-outs stand apart in the source and are kept apart here.

Columns and labels:
[1] = Test for synergism: analgesia 3 hours after oral co-administration, adjuvans arthritis pain test on the rat; assay type: in vivo, rat (male OFA)
Procedure: In order to establish the presence or absence of synergism the basic analgesic test described above is employed, with analgesia measured three hours after administration of the test substance. Varying proportions of the two test-substance components are used, in fixed dose relationships, based upon the ED50 values previously established for the individual components. The degree of activity is then presented graphically. The test components are administered orally in tragacanth suspension and 5 to 15 animals employed per test run. The two test-components are administered in the following dose relationship: […]
Thus three basic curves may be obtained as shown diagramatically in FIG. 1 in which a curve x represents potentiation (i.e. super-additive synergism), a curve y represents additive synergism and a curve z represents antagonism.

[2] = Basic analgesic test: adjuvans arthritis pain test on the rat, oral administration; assay type: in vivo, rat (male OFA); details: for ED50: Rattus norvegicus, po, individual component
Procedure: J. of Pharmacology 31, 207-215 (1975)], e.g. as follows: […] This induces a secondary arthritis of the right hind-paw within the course of the next two or more days. The test for analgesic effectiveness is carried out 16 to 18 days later. A control measurement is carried out 30 minutes prior to administration of the test-substance, by flexing the ankle-joint of the right hind paw three times and recording the number of vocalisations (pain-reaction). […] The confidence limits are determined according to the method of […] Wilcoxon. All tests are carried out blind, employing 5 to 15 animals per test substance.

[3] = 1 hour after administration, read-out: ED50 at 1 hour after administration
[4] = 3 hours after administration, read-out: ED50 at 3 hours after administration
[5] = 5 hours after administration, read-out: ED50 at 5 hours after administration

SMILES | % activity ([1]; A 0, B 3.6 mg/kg p.o. (relative dosage 0 : 1)) | ED50 [2, 3] | ED50 [2, 4] | ED50 [2, 5] | percentage printed in parentheses beside the ED50 at 5 hours (not explained) ([2]; p.o., 5 hours after administration) | activity at 6.5 mg/kg ([1]; Rattus norvegicus, po, A 6.5 mg/kg, B 0 p.o. (relative dosage 1 : 0))
Clc1ccc2nsnc2c1NC1=NCCN1 [Component B, 5-chloro-4-(2-imidazolin-2-ylamino)-2,1,3-benzothiadiazole] | 50% | ~1.8 mg/kg | 3.6 mg/kg | ~10 mg/kg | -60% | –
Cc1ccc2c(-c3ccc(F)cc3)nc(=O)n(C(C)C)c2c1 [Component A, 1-Isopropyl-4-(4-fluorophenyl)-7-methyl-2(1H)-quinazolinone] | – | ~18 mg/kg | 6.5 mg/kg | 7 mg/kg | – | 50%
